Experimental data published in ChEMBL document CHEMBL5030537 (J Med Chem, 2021).
Values after ≈ are worked out from the molar mass of the structure shown. Blank lines part the entries; values can stand above or below the molecule they belong to.

Legend:
[1] = target: T1, Tyrosine-protein kinase BTK (Homo sapiens, UniProt Q06187); experiment: Inhibition of Btk (unknown origin) assessed as inhibition of phosphorylation of FAM-labelled peptide substrate
[2] = target: T1, Tyrosine-protein kinase BTK; experiment: Inhibition of human Btk in human Raji cells assessed as PhosY223 measured after 30 mins by cellular HTRF assay; assay type: cell-based
[3] = Thermodynamic solubility of the compound at pH 1.2 in JP1 fluid; assay type: physicochemical; conditions: read-out: Therm_solubility
[4] = Thermodynamic solubility of the compound at pH 6.8 in JP2 fluid; assay type: physicochemical; conditions: read-out: Therm_solubility
[5] = Thermodynamic solubility of the compound at pH 6.8 in GCDC; assay type: physicochemical; conditions: read-out: Therm_solubility
[6] = tested on: MDR1; experiment: Apparent permeability from apical to basolateral side in LLC-PK1-MDR1 cells; assay type: ADME, cell-based, Sus scrofa; conditions: pig
[7] = tested on: MDR1; experiment: Efflux ratio of apparent permeability in LLC-PK1-MDR1 cells; conditions: pig
[8] = Metabolic stability in mouse liver hepatocytes assessed as extraction ratio
[9] = Metabolic stability in Sprague-Dawley rat liver hepatocytes assessed as extraction ratio
[10] = Metabolic stability in Beagle dog liver hepatocytes assessed as extraction ratio
[11] = Metabolic stability in monkey liver hepatocytes assessed as extraction ratio; conditions: rhesus monkey
[12] = Metabolic stability in human liver hepatocytes assessed as extraction ratio; conditions: mouse
[13] = Plasma protein binding in Sprague-Dawley rat measured by rapid equilibrium dialysis method; assay type: ADME, cell-free; conditions: read-out: PPB (converted)
[14] = Plasma protein binding in human measured by rapid equilibrium dialysis method; assay type: ADME, cell-free; conditions: read-out: PPB (converted)
[15] = Clearance in Beagle dog at 1 mg/kg, iv; assay type: ADME, organism-based, Canis lupus familiaris; conditions: in vivo
[16] = In vivo stability in Sprague-Dawley rat liver assessed as extraction ratio at 70 ml/kg
[17] = In vivo stability in Beagle dog liver assessed as extraction ratio at 35 ml/kg
[18] = Half life in Sprague-Dawley rat; assay type: ADME; conditions: in vivo
[19] = Half life in Beagle dog; assay type: ADME, Canis lupus familiaris; conditions: in vivo
[20] = In vivo inhibition of pBTK in collagen-induced arthritis rat model at 3-30 mg/kg after 12 hrs; assay type: functional
[21] = tested on: Rattus norvegicus; experiment: Antiarthritic activity against collagen-induced arthritis po dosed Lewis rat model assessed as inhibition of paw swelling measured after 22 days; assay type: organism-based; conditions: 528 h, time 22 day
[22] = AUC in collagen-induced arthritis rat model at 3 mg/kg, po […] after 22 days; assay type: ADME, organism-based; set-up: dose 3 mg/kg, time 22 day; conditions: in vivo, 528 h
[23] = target: Tyrosine-protein kinase Lck (Homo sapiens, UniProt P06239); experiment: Inhibition of Lck (unknown origin)
[24] = target: hERG (KCNH2) (Homo sapiens, UniProt Q12809); experiment: Inhibition of hERG at 13 uM
[25] = tested on: Salmonella typhimurium; experiment: Genotoxicity in Salmonella typhimurium TA98 by Ames test; assay type: toxicity, organism-based; conditions: salmonella enterica subsp. enterica serovar typhimurium
[26] = tested on: Salmonella typhimurium; experiment: Genotoxicity in Salmonella typhimurium […] by Ames test; assay type: toxicity, organism-based; conditions: salmonella enterica subsp. enterica serovar typhimurium
[27] = tested on: Salmonella typhimurium; experiment: Genotoxicity in Salmonella typhimurium TA1535 by Ames test; assay type: toxicity, organism-based; conditions: salmonella enterica subsp. enterica serovar typhimurium
[28] = tested on: Salmonella typhimurium; experiment: Genotoxicity in Salmonella typhimurium TA1537 by Ames test; assay type: toxicity, organism-based; conditions: salmonella enterica subsp. enterica serovar typhimurium
[29] = tested on: Salmonella typhimurium; experiment: Genotoxicity in Salmonella typhimurium WP2 uvrA in presence of S9 fraction by Ames test; assay type: toxicity, organism-based; conditions: salmonella enterica subsp. enterica serovar typhimurium
[30] = tested on: Salmonella typhimurium; experiment: Genotoxicity in Salmonella typhimurium WP2 uvrA in absence of S9 fraction by Ames test; assay type: toxicity, organism-based; conditions: salmonella enterica subsp. enterica serovar typhimurium
[31] = Toxicity in human peripheral blood lymphocytes in presence of S9 fraction by micronucleus test; assay type: subcellular, Lymphocyte
[32] = Toxicity in human peripheral blood lymphocytes in absence of S9 fraction by micronucleus test; assay type: cell-based; conditions: lymphocyte
[33] = Oral bioavailability in Sprague-Dawley rat; assay type: ADME, organism-based; conditions: in vivo
[34] = Oral bioavailability in Beagle dog; assay type: ADME, organism-based, Canis lupus familiaris; conditions: in vivo
[35] = Stability in PBS buffer measured after 2 hrs; assay type: physicochemical
[36] = GSH reactivity in pH 7.4 PBS buffer assessed as intrinsic reactivity by measuring percent remaining measured after 2 hrs; assay type: physicochemical; conditions: read-out: Stability
[37] = tested on: Rattus norvegicus; experiment: Antiarthritic activity against collagen-induced arthritis Lewis rat model assessed as inhibition of paw swelling treated po once daily for 21 days; assay type: functional, organism-based; conditions: dose 0.3-3 mg/kg, time 21.0 day
[38] = tested on: PDE3; experiment: Inhibition of PDE3 (unknown origin) assessed as remaining activity; conditions: human
[39] = target: PDE5 (Homo sapiens, UniProt O76074); experiment: Inhibition of PDE5 (unknown origin) assessed as remaining activity
[40] = target: PDE10A2 (Homo sapiens, UniProt Q9Y233); experiment: Inhibition of PDE10A2 (unknown origin) assessed as remaining activity
[41] = tested on: Rattus norvegicus; experiment: Antiarthritic activity against collagen-induced arthritis Lewis rat model assessed as change in paw volume at 0.1 mg/kg, po once daily for 22 days; assay type: functional; conditions: time 22 day
[42] = tested on: Rattus norvegicus; experiment: Antiarthritic activity against collagen-induced arthritis Lewis rat model assessed as change in paw volume at 0.3 mg/kg, po once daily for 22 days; assay type: functional; conditions: time 22 day
[43] = tested on: Rattus norvegicus; experiment: Antiarthritic activity against collagen-induced arthritis Lewis rat model assessed as change in paw volume at 1 mg/kg, po once daily for 22 days; assay type: functional; conditions: time 22 day
[44] = tested on: Rattus norvegicus; experiment: Antiarthritic activity against collagen-induced arthritis Lewis rat model assessed as change in paw volume at 3 mg/kg, po once daily for 22 days; assay type: functional; conditions: time 22 day
[45] = Toxicity in rat assessed as adverse effect; conditions: in vivo
[46] = Toxicity in dog assessed as adverse effect; set-up: species or system Canis lupus familiaris; conditions: in vivo
[47] = target: Proto-oncogene tyrosine-protein kinase Src (Homo sapiens, UniProt P12931); experiment: Inhibition of Src (unknown origin)
Sequence of Proto-oncogene tyrosine-protein kinase Src (P12931 2-536 limits assumed): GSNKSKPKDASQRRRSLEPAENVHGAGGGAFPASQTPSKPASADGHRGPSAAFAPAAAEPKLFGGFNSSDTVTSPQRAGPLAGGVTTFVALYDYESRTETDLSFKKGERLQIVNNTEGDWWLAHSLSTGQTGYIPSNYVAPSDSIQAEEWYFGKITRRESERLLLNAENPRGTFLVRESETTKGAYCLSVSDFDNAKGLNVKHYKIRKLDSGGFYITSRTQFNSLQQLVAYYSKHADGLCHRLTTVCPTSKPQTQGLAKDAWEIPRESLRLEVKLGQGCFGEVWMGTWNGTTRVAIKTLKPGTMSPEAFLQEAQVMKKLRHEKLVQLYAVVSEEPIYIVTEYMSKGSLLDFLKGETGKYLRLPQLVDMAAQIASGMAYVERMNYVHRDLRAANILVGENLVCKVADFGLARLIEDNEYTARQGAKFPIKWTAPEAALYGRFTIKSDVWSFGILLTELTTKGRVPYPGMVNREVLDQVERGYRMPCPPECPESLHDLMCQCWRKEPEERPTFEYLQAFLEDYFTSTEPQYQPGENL

T1 sequence (Q06187 whole entry): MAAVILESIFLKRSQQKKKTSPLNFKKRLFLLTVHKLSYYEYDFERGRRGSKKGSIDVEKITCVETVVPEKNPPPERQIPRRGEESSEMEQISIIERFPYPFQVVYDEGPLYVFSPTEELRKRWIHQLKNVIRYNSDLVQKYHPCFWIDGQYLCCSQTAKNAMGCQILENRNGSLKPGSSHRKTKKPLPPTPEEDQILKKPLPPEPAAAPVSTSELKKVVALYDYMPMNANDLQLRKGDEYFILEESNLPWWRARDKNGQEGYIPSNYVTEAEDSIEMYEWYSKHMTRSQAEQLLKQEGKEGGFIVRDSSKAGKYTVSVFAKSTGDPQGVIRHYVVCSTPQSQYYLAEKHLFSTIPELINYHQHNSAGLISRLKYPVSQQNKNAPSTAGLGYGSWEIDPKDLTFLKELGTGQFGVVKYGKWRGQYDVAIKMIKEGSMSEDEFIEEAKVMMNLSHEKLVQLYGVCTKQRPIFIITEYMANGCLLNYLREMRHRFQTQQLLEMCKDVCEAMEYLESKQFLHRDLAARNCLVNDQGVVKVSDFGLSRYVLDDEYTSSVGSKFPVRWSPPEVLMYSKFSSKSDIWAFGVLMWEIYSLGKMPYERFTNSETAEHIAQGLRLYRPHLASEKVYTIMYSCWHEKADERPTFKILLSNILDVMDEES
Sequence of PDE10A2 (Q9Y233 whole entry): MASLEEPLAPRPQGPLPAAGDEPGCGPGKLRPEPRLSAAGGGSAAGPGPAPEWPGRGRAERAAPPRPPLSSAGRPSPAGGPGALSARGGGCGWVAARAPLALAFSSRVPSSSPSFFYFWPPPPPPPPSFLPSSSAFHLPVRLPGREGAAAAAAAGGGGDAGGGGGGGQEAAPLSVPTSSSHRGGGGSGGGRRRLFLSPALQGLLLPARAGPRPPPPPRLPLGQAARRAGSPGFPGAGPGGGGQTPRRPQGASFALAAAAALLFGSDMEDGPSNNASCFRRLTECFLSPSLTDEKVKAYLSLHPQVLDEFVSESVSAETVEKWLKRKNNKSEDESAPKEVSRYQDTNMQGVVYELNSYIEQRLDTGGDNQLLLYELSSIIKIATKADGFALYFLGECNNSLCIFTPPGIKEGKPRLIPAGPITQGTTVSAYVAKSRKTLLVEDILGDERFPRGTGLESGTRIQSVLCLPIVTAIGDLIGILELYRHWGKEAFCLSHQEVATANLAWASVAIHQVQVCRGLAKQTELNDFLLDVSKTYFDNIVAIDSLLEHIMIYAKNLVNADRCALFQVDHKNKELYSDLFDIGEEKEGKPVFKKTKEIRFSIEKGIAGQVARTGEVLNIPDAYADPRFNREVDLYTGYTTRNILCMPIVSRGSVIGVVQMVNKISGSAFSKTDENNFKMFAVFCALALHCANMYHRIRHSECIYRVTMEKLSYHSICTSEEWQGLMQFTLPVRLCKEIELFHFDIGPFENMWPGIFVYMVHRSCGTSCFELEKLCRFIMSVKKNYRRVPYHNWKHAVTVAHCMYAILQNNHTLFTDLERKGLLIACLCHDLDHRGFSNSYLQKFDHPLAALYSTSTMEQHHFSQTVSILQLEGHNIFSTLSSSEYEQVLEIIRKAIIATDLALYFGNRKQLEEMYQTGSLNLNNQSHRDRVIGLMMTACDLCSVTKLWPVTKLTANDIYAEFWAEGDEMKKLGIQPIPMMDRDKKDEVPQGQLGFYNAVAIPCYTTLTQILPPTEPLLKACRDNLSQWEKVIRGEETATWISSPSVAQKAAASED
Sequence of hERG (KCNH2) (Q12809 whole entry): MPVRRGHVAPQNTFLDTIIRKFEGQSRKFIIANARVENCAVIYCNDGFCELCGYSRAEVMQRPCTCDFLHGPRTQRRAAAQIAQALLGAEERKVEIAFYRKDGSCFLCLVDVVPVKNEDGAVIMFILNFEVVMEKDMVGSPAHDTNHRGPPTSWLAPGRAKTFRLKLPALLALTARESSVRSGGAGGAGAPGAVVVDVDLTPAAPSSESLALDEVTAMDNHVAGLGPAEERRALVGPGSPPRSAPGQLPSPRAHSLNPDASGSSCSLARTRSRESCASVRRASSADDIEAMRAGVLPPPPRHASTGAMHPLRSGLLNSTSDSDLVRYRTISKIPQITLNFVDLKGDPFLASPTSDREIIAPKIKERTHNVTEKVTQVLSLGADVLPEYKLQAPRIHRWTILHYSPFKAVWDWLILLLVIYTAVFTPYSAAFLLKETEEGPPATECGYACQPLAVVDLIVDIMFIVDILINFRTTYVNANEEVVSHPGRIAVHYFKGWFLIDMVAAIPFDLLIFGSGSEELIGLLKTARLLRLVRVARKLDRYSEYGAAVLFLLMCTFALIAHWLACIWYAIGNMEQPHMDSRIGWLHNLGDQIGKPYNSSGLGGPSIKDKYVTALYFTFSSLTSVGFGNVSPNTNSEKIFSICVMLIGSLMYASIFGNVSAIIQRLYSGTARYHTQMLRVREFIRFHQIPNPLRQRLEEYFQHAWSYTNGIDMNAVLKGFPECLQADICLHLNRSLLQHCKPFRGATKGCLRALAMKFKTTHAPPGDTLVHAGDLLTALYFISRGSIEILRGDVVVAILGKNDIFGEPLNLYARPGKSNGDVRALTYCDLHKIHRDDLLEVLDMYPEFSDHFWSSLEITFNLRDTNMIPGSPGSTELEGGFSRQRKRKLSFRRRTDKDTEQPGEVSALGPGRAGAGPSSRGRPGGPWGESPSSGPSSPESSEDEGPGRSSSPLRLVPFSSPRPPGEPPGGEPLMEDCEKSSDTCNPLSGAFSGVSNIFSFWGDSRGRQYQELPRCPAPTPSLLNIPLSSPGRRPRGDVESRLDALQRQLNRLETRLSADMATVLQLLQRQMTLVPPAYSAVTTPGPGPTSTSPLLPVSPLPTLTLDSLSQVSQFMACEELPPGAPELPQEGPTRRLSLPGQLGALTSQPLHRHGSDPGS
Sequence of Tyrosine-protein kinase Lck (P06239 whole entry): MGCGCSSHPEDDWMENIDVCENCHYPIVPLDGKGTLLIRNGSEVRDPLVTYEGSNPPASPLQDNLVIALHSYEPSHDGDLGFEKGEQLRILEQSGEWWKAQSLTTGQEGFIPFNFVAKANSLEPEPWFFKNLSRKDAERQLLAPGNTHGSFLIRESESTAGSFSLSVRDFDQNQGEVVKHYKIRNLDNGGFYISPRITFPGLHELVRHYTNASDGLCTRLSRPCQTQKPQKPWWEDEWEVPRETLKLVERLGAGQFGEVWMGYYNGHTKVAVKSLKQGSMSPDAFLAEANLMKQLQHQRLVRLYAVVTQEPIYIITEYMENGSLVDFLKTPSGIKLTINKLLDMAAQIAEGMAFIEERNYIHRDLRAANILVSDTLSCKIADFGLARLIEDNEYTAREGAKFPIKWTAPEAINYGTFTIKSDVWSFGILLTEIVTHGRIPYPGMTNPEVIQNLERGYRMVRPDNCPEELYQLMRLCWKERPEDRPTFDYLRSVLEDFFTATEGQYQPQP

IC50 [1]: 20 nM
EC50 [2]: 158 nM
Compound: CC(C)Nc1nc(-c2n[nH]c(=O)[nH]2)cc2ccccc12

IC50 [1]: 10 nM
EC50 [2]: 100 nM
Compound: CC(C)Oc1nc(-c2n[nH]c(=O)[nH]2)cc2ccccc12

IC50 [1]: 50.1 nM
Compound: CCOc1nc(-c2n[nH]c(=O)[nH]2)cc2ccccc12

IC50 [1]: 100 nM
EC50 [2]: 794 nM
Compound: CCNc1nc(-c2n[nH]c(=O)[nH]2)cc2ccccc12

IC50 [1]: 25.1 nM
EC50 [2]: 398 nM
Compound: CCCOc1nc(-c2n[nH]c(=O)[nH]2)cc2ccccc12

IC50 [1]: 5010 nM
Compound: O=c1[nH]nc(-c2cc3ccccc3cn2)[nH]1

IC50 [1]: 398 nM
Compound: COc1nc(-c2n[nH]c(=O)[nH]2)cc2ccccc12

Continued, molecule first:

Compound: NC(=O)c1nnc2ccccc2c1N
IC50 [1]: 3160 nM

Compound: COc1nc2ccccc2cc1-c1n[nH]c(=O)[nH]1
IC50 [1]: 3160 nM

Compound: Cc1cc(OC(C)C)nc(-c2n[nH]c(=O)[nH]2)c1
IC50 [1]: 251 nM

Compound: O=c1[nH]nc(-c2ccccn2)[nH]1
IC50 [1]: 316000 nM

Compound: O=c1[nH]nc(-c2nc3ccccc3[nH]2)[nH]1
IC50 [1]: 10000 nM

Compound: CCOc1ncccc1-c1n[nH]c(=O)[nH]1
IC50 [1]: > 100000 nM

Compound: CCOc1cccc(-c2n[nH]c(=O)[nH]2)n1
IC50 [1]: 6310 nM

Compound: COc1ncccc1-c1n[nH]c(=O)[nH]1
IC50 [1]: 100000 nM

Compound: CC(=O)N1CC[C@H](Oc2nc(-c3n[nH]c(=O)[nH]3)cc3ccccc23)C1
IC50 [1]: 31.6 nM

Compound: O=c1[nH]nc(-c2cccnc2)[nH]1
IC50 [1]: 126000 nM

Compound: CC(C)COc1cccc(-c2n[nH]c(=O)[nH]2)n1
IC50 [1]: 1580 nM

Compound: C=CC(=O)N1CC[C@@H](Oc2nc(-c3n[nH]c(=O)[nH]3)cc3ccccc23)C1
IC50 [1]: 31.6 nM
EC50 [2]: 501 nM

Compound: COc1cccc(-c2n[nH]c(=O)[nH]2)n1
IC50 [1]: 31600 nM

Compound: Oc1n[nH]c(-c2ccccc2)n1
IC50 [1]: 501000 nM

Compound: C=CC(=O)N1CC[C@H](Oc2nc(-c3n[nH]c(=O)[nH]3)cc3ccccc23)C1 [TAK-020]
IC50 [1]: < 2 nM
EC50 [2]: 1.26 nM
solubility thermodynamic [3]: < 0.1 µg/mL
solubility thermodynamic [4]: < 1.1 µg/mL
solubility thermodynamic [5]: 6.8 µg/mL (≈ 19.4 µM)
Papp A→B [6]: 1.89 ×10⁻⁶ cm/s
efflux ratio [7]: 10.8
hepatic extraction ratio [8]: 0.62
hepatic extraction ratio [9]: 0.31
hepatic extraction ratio [10]: 0.48
hepatic extraction ratio [11]: 0.37
hepatic extraction ratio [12]: 0.21
fraction unbound [13]: 0.098
fraction unbound [14]: 0.113
clearance [15]: 28.5 mL/min/kg
hepatic extraction ratio [16]: > 0.9
hepatic extraction ratio [17]: 0.81
half-life [18]: 0.7 h
half-life [19]: 3 h
inhibition in vivo at 30 mg/kg [20]: > 50%
ED50 [21]: 0.17 mg/kg
AUC [22]: 4.2 ng·h/mL
IC50 [23]: 1000 nM
inhibition at 13 µM [24]: 18%
Activity [25]: Non-Toxic
Activity [26]: Non-Toxic
Activity [27]: Non-Toxic
Activity [28]: Non-Toxic
Activity [29]: Non-Toxic
Activity [30]: Non-Toxic
Activity [31]: Non-Toxic
Activity [32]: Non-Toxic
F [33]: 6%
bioavailability [34]: 6.5%
Stability [35]: Stable
remaining at 2 h [36]: 75%
inhibition [37]: Dose-Dependent Effect
Activity [38]: 96%
Activity [39]: 67%
Activity [40]: 59%
Activity [41]: 21%
Activity [42]: 75%
Activity [43]: 173%
Activity [44]: 240%
Activity [45]: Non-Toxic
Activity [46]: Non-Toxic
IC50 [47]: 631 nM
